# From paper PMC10272271, “MAM-2201 acute administration impairs motor, sensorimotor, prepulse inhibition, and memory functions in mice: a comparison with its analogue AM-2201” (Psychopharmacology, 2023)
# How the values were obtained:
# [1] = molecular target: T1, human CB2 receptors (Homo sapiens, UniProt P34972); assay: [3H]-CP-55,940 competition binding, hCB2 CHO membranes
# T1 construct: host or cells: CHO cells
# Method: CHO cells transfected with human CB1 or CB2 receptors (Perkin Elmer Life and Analytical Sciences, USA) were grown adherently and maintained in Ham’s F12 containing 10% fetal bovine serum, penicillin (100 U/ml), streptomycin (100 µg/ml), and Geneticin (G418, 0.4 mg/ml) at 37 °C in 5% CO2/95% air. To obtain membranes, cells were washed with PBS and scraped off with ice-cold hypotonic buffer (5 mM Tris HCl, 2 mM EDTA, pH 7.4). The cell suspension was homogenized with a Polytron and then centrifuged for 30 min at 40,000 × g. […]
# Competition binding experiments were carried out incubating 0.5 nM [^3H]-CP-55,940 (Perkin Elmer Life and Analytical Sciences, USA) and different concentrations of the tested compounds for 90 or 60 min at 30 °C for CB1 or CB2 receptors, respectively. […] Non-specific binding was determined in the presence of 1 mM WIN 55,212–2 (Vincenzi et al. [2013]). Bound and free radioactivity were separated by filtering the assay mixture through Whatman GF/C glass fiber filters using a Brandel cell harvester (Brandel Instruments, Unterföhring, Germany). The filter-bound radioactivity was counted using a Packard Tri Carb 2810 TR scintillation counter (Perkin Elmer Life and Analytical Sciences, USA).
# The protein concentration was determined according to a Bio-Rad method (500–0006; Bio-Rad Laboratories, Hercules, CA, USA) with bovine serum albumin as a reference standard. […]
# [2] = molecular target: CB2 receptors; set-up: method as in Howlett et al. [2002]; Hess et al. [2015]; details: ref Howlett et al. [2002]; Hess et al. [2015]; read-out: CB2 receptor Ki; cited from earlier work
# [3] = molecular target: CB1 receptors; set-up: method as in Howlett et al. [2002]; Hess et al. [2015]; details: ref Howlett et al. [2002]; Hess et al. [2015]; read-out: CB1 receptor Ki; cited from earlier work
# [4] = molecular target: T1, human CB2 receptors; assay: Cyclic AMP assay, hCB2 CHO cells; assay type: cell-based; details: for agonist behaviour (inhibition of forskolin-stimulated cAMP production): CHO cells, human CB2
# Method: CHO cells transfected with human CB1 or CB2 receptors were washed with PBS, detached with trypsin, and centrifuged for 10 min at 200 × g. The pellet containing 1 × 10^6 cells/assay was suspended in 0.5 ml of buffer containing150 mM NaCl, 2.7 mM KCl, 0.37 mM NaH2PO4, 1 mM MgSO4, 1 mM CaCl2, 5 mM HEPES, 10 mM MgCl2, and 5 mM glucose, at pH 7.4 and 37 °C. Cells were pre-incubated with 0.5 mM of the phosphodiesterase inhibitor 4-(3-butoxy-4-methoxybenzyl)-2-imidazolidinone (Ro 20–1724;) for 10 min in a shaking bath at 37 °C. The potency of the examined compounds to inhibit adenylate cyclase activity was determined in the presence of forskolin 1-µM stimulation. The reaction was terminated by the addition of cold 6% trichloroacetic acid (TCA) and the final aqueous solution was tested for cyclic AMP levels by a competition protein binding assay (AlphaScreen cAMP Detection Kit, Cat. Number 6760635D, Perkin Elmer Life and Analytical Sciences, USA) following the manufacturer’s instructions; Vincenzi et al. [2013]).
# (§1) The protein concentration was determined according to a Bio-Rad method (500–0006; Bio-Rad Laboratories, Hercules, CA, USA) with bovine serum albumin as a reference standard. Inhibitory binding constants, Ki, were calculated from the IC50 values according to the Cheng and Prusoff equation: Ki = IC50/(1 + [C*]/KD*), where [C*] is the concentration of the radioligand and KD* its dissociation constant. Functional experiments were analyzed by non-linear regression analysis using the equation for a sigmoid concentration–response curve (GraphPad Prism, USA). All the data are expressed as the mean ± SEM of three independent experiments.
# [5] = molecular target: T2, human CB1 receptors (Homo sapiens, UniProt P21554); assay: [3H]-CP-55,940 competition binding, hCB1 CHO membranes; details: for selectivity index (ratio Ki CB2 / Ki CB1): human CB receptors
# T2 construct: host or cells: CHO cells
# Method: CHO cells transfected with human CB1 or CB2 receptors (Perkin Elmer Life and Analytical Sciences, USA) were grown adherently and maintained in Ham’s F12 containing 10% fetal bovine serum, penicillin (100 U/ml), streptomycin (100 µg/ml), and Geneticin (G418, 0.4 mg/ml) at 37 °C in 5% CO2/95% air. To obtain membranes, cells were washed with PBS and scraped off with ice-cold hypotonic buffer (5 mM Tris HCl, 2 mM EDTA, pH 7.4). The cell suspension was homogenized with a Polytron and then centrifuged for 30 min at 40,000 × g. The membrane pellet was suspended in 50 mM Tris HCl buffer (pH 7.4) containing 2.5 mM EDTA, 5 mM MgCl2, 0.5% BSA for CB1 receptors or in 50 mM Tris HCl (pH 7.4), 1 mM EDTA, 5 mM MgCl2, 0.5% BSA for CB2 receptors (Vincenzi et al. [2013]).
# Competition binding experiments were carried out incubating 0.5 nM [^3H]-CP-55,940 (Perkin Elmer Life and Analytical Sciences, USA) and different concentrations of the tested compounds for 90 or 60 min at 30 °C for CB1 or CB2 receptors, respectively. For human cannabinoid receptors, membranes obtained from CHO cells transfected with human CB1 or CB2 receptors (2 µg protein/100 µl) were used. Competition binding experiments at murine cannabinoid receptors were performed with mouse brain membranes (40 µg protein/100 µl) or with mouse spleen membranes (80 µg protein/100 µl) for CB1 receptors or CB2 receptors, respectively. Non-specific binding was determined in the presence of 1 mM WIN 55,212–2 (Vincenzi et al. [2013]). Bound and free radioactivity were separated by filtering the assay mixture through Whatman GF/C glass fiber filters using a Brandel cell harvester (Brandel Instruments, Unterföhring, Germany). The filter-bound radioactivity was counted using a Packard Tri Carb 2810 TR scintillation counter (Perkin Elmer Life and Analytical Sciences, USA).
# as §1
# T2 sequence (P21554 whole entry): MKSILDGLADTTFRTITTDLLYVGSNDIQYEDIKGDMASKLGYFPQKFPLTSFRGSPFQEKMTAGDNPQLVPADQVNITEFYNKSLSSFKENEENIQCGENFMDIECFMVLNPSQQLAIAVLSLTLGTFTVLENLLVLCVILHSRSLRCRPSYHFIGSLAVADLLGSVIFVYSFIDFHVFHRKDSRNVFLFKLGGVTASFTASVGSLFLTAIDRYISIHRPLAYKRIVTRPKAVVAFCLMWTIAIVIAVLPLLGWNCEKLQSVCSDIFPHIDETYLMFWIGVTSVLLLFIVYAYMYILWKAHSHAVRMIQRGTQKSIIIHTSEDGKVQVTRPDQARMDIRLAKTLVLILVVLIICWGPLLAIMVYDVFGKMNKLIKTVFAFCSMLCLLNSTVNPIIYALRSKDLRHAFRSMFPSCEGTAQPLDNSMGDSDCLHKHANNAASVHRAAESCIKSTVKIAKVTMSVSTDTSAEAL
# T1 sequence (P34972 whole entry): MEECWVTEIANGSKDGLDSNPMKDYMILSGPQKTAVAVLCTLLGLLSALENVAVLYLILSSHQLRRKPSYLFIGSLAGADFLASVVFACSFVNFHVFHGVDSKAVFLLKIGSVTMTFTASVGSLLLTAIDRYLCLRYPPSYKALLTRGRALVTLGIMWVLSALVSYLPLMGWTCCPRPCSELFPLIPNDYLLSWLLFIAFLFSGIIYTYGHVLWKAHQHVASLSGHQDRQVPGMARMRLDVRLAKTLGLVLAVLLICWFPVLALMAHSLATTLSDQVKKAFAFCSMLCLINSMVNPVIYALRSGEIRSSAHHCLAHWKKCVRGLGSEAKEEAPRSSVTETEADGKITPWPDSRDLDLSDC
Structure (SMILES),Ki [1],Ki [2],Ki [3],IC50 [4],agonist behaviour (inhibition of forskolin-stimulated cAMP production) [4],Ki [5],selectivity index (ratio Ki CB2 / Ki CB1) [5]
"O=C(c1cccc2ccccc12)c1cn(CCCCCF)c2ccccc12 [AM-2201, 1-[(5-Fluoropentyl)-1H-indol-3-yl](1-naphthylenyl) methanone]",16.4 ± 1.5 nM,2.6 nM,1 nM,31.8 ± 2.9 nM,full agonists,1.66 ± 0.13 nM,9.9
"Cc1ccc(C(=O)c2cn(CCCCCF)c3ccccc23)c2ccccc12 [MAM-2201, 1-[(5-fluoropentyl)-1H-indol-3-yl](4-methyl-1-naphthalenyl) methanone]",10.3 ± 2.1 nM,0.582 ± 0.123 nM,2.07 ± 0.82 nM,22.4 ± 3.8 nM,full agonists,1.11 ± 0.12 nM,9.3
